{"source": "ChEMBL document CHEMBL1148319", "about": "“A molecular basis for the selectivity of thiadiazole urea inhibitors with stromelysin-1 and gelatinase-A from generalized born molecular dynamics simulations” (J Med Chem, 2004)"}
{"target": "72 kDa type IV collagenase (Homo sapiens, UniProt P08253)", "sequence (P08253 whole entry)": "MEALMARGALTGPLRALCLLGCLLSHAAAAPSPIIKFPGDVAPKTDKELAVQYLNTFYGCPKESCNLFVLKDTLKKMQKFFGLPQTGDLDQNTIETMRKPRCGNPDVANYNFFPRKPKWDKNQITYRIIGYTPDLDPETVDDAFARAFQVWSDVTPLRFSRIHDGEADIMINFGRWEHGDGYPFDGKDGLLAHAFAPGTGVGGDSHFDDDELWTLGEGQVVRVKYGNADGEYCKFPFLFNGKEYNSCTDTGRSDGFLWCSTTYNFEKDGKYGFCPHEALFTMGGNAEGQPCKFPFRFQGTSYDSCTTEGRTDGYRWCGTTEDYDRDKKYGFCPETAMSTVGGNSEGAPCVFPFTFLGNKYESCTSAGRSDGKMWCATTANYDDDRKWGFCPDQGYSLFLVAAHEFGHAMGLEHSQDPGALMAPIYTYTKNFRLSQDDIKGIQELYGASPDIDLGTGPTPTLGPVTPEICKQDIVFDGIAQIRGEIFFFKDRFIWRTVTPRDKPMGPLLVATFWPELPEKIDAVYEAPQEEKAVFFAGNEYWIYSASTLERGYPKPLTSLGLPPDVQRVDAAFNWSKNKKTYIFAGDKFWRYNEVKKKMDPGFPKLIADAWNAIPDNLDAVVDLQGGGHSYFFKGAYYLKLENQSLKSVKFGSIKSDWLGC", "units": {"Ki": "µM"}, "description": "Inhibition of human Matrix metalloprotease-2 (gelatinase-A)"}
{"smiles": "CNC(=O)[C@H](Cc1ccccc1)NC(=O)Nc1nnc(S)s1", "Ki": 3}
{"smiles": "CNC(=O)CNC(=O)Nc1n[nH]c(=S)s1", "Ki": "> 100"}
{"smiles": "CNC(=O)[C@H](CO)NC(=O)Nc1n[nH]c(=S)s1", "Ki": "> 200"}
{"smiles": "CNC(=O)[C@H](Cc1c(F)c(F)c(F)c(F)c1F)NC(=O)Nc1nnc(S)s1", "Ki": 3}
{"smiles": "CN(C)C(=O)[C@H](Cc1ccccc1)NC(=O)Nc1nnc(S)s1", "Ki": 226}
{"smiles": "NC(=O)[C@H](Cc1ccccc1)NC(=O)Nc1nnc(S)s1", "Ki": "> 200"}
